In patent publication US10793892B2, “Method for detecting the presence of expanded spectrum β-lactamase-producing bacteria in a sample” (INSERM (INSTITUT NATIONAL DE LA SANTE ET DE LA RECHERCHE …, priority 2011, dated 2020):

Assays:
C. brakii = test: Susceptibility testing, MIC by Etest; format: cell-based; conditions: C. brakii Wild-type, chromosome-encoded cephalosporinase, n=1
Protocol: (§1) Susceptibility testing was performed by determining MIC values using the Etest® (AB bioMérieux; Solna, Sweden) on Mueller-Hinton agar plates at 37° C. and results were recorded according to US guidelines (CLSI), as updated in 2012 (2). The breakpoints for cefotaxime are susceptible (S)≤1 and resistant (R)≥4 μg/ml, and for ceftazidime S≤4 and R≥16 μg/ml.

S. ficaria = test: Susceptibility testing, MIC by Etest; format: cell-based; conditions: S. ficaria Wild-type, chromosome-encoded cephalosporinase, n=1
Protocol: as §1

E. sakazakii = test: Susceptibility testing, MIC by Etest; format: cell-based; conditions: overexpressed chromosome-encoded cephalosporinase, n=1
Protocol: as §1

P. mirabilis = test: Susceptibility testing, MIC by Etest; format: cell-based, Proteus mirabilis
Protocol: as §1

S. marcescens = test: Susceptibility testing, MIC by Etest; format: cell-based, Serratia marcescens; conditions: S. marcescens Wild-type, chromosome-encoded cephalosporinase, n=2
Protocol: as §1

C. freundii = test: Susceptibility testing, MIC by Etest; format: cell-based, Citrobacter freundii
Protocol: as §1

E. cloacae = test: Susceptibility testing, MIC by Etest; format: cell-based, Enterobacter cloacae
Protocol: as §1

P. stuartii = test: Susceptibility testing, MIC by Etest; format: cell-based, Providencia stuartii; conditions: P. stuartii TEM-24, n=1
Protocol: as §1

M. morganii = test: Susceptibility testing, MIC by Etest; format: cell-based, Morganella morganii; conditions: M. morganii Wild-type, chromosome-encoded cephalosporinase, n=2
Protocol: as §1

K. pneumoniae = test: Susceptibility testing, MIC by Etest; format: cell-based, Klebsiella pneumoniae
Protocol: as §1

E. coli = test: Susceptibility testing, MIC by Etest; format: cell-based, Escherichia coli
Protocol: as §1

K. oxytoca = test: Susceptibility testing, MIC by Etest; format: cell-based, Klebsiella oxytoca; conditions: K. oxytoca Wild-type penicillinase, n=1
Protocol: as §1

E. aerogenes = test: Susceptibility testing, MIC by Etest; format: cell-based, Enterobacter aerogenes
Protocol: as §1

S. enterica = test: Susceptibility testing, MIC by Etest; format: cell-based, Salmonella enterica
Protocol: as §1

Enterobacteriaceae = format: biochemical; conditions: all CTX-M producers (n=147); tazobactam added to cefotaxime well
Protocol: Strains were isolated on Mueller-Hinton agar (Biorad, Marnes-la-Coquette, France) and incubated at 37° C. for 16 h to 24 h before performing the NDP rapid ESBL test as follows. One calibrated inoculated loop (10 μl) of the tested strain was resuspended in 150 μl of 20 mM Tris-HCl lysis buffer previously distributed in Microbead tubes (Ultraclean Microbial DNA isolation kit Bead Tubes, MO BIO Laboratories, Carlsbad, USA). Mechanical lysis of bacteria was performed by strong agitation of Microbead tubes using a vortex adapter (MO BIO Laboratories) for 30 min at room temperature. This bacterial suspension was centrifuged at 10,000×g at room temperature for 5 min. Thirty μl of the supernatant was mixed in a well of a 96-well tray with 100 μl of a 1 ml solution made of 3 mg of purified cefotaxime sodium salt (Sigma-Aldrich, Saint-Quentin-Fallavier, France) in a pH 7.8 phenol red solution. […] The phenol red solution was made by taking 2 ml of a concentrated pH 8 phenol solution (made from a mixture of phenol red 0.5% in distilled water) to which 16.6 ml of distilled water was added. The pH value was then adjusted to a 7.8 value by adding drops of a 1 N NaOH solution. Mixture of the phenol red solution and the enzymatic suspension being tested was incubated at 37° C. for 30 min. Similarly, culture extracts were analyzed in wells containing cefotaxime and tazobactam (4 mg/ml). […]

Question: For CC(C)(O/N=C(\C(=O)N[C@@H]1C(=O)N2C(C(=O)[O-])=C(C[n+]3ccccc3)CS[C@H]12)c1csc(N)n1)C(=O)O [CAZ, ceftazidime], which MICs range (C. brakii) is on record?
Answer: 0.25 µg/mL

Question: What about the MICs range (S. ficaria) of the same molecule?
Answer: 0.09 µg/mL

Question: And the MICs range (E. sakazakii)?
Answer: >32 µg/mL

Question: And the MICs range (P. mirabilis; P. mirabilis ACC-1, n=1)?
Answer: >32 µg/mL

Question: What about the MICs range (P. mirabilis; P. mirabilis CTX-M-14, n=1) of the same molecule?
Answer: 0.75 µg/mL

Question: What about the MICs range (P. mirabilis; P. mirabilis CTX-M-15, n=1) of the same molecule?
Answer: 8 µg/mL

Question: And the MICs range (P. mirabilis; P. mirabilis PER-1, n=1)?
Answer: >32 µg/mL

Question: And the MICs range (P. mirabilis; P. mirabilis TEM-21, n=1)?
Answer: 4 µg/mL

Question: What about the MICs range (P. mirabilis; P. mirabilis TEM-52, n=1) of the same molecule?
Answer: 16 µg/mL

Question: And the MICs range (S. marcescens)?
Answer: 0.09 µg/mL

Question: And the MICs range (C. freundii; C. freundii TEM-3, n=1)?
Answer: >16 µg/mL

Question: And the MICs range (C. freundii; C. freundii Wild-type, chromosome-encoded cephalosporinase, n=1)?
Answer: 0.25 µg/mL

Question: And the MICs range (E. cloacae; E. cloacae CTX-M-14, n=1)?
Answer: 8 µg/mL

Question: What about the MICs range (E. cloacae; E. cloacae CTX-M-15, n=17) of the same molecule?
Answer: 2 to 16 µg/mL

Question: And the MICs range (E. cloacae; E. cloacae GES-5, n=1)?
Answer: >32 µg/mL

Question: And the MICs range (E. cloacae; E. cloacae PER-1, n=1)?
Answer: >32 µg/mL

Question: And the MICs range (E. cloacae; E. cloacae SHV-5, n=1)?
Answer: >32 µg/mL

Question: And the MICs range (E. cloacae; E. cloacae TEM-3, n=2)?
Answer: >16 µg/mL

Question: And the MICs range (E. cloacae; E. cloacae VEB-1, n=1)?
Answer: >32 µg/mL

Question: And the MICs range (E. cloacae; E. cloacae Wild-type, chromosome-encoded cephalosporinase, n=5)?
Answer: 0.12 to 0.38 µg/mL

Question: What about the MICs range (E. cloacae; E. cloacae, overexpressed chromosome-encoded cephalosporinase, n=2) of the same molecule?
Answer: >32 µg/mL

Question: What about the MICs range (E. cloacae; E. cloacae, overexpressed chromosome-encoded cephalosporinase, n=3) of the same molecule?
Answer: >32 µg/mL

Question: What about the MICs range (P. stuartii) of the same molecule?
Answer: 8 µg/mL

Question: And the MICs range (M. morganii)?
Answer: 0.09 to 1 µg/mL

Question: What about the MICs range (K. pneumoniae; K. pneumoniae CTX-M-3, n=1) of the same molecule?
Answer: 1.5 µg/mL

Question: And the MICs range (K. pneumoniae; K. pneumoniae CTX-M-14, n=3)?
Answer: 0.5 to 6 µg/mL

Question: What about the MICs range (K. pneumoniae; K. pneumoniae DHA-1, n=1) of the same molecule?
Answer: >32 µg/mL

Question: And the MICs range (K. pneumoniae; K. pneumoniae DHA-2, n=1)?
Answer: >32 µg/mL

Question: What about the MICs range (K. pneumoniae; K. pneumoniae GES-1, n=1) of the same molecule?
Answer: 4 µg/mL

Question: And the MICs range (K. pneumoniae; K. pneumoniae SHV-2a, n=2)?
Answer: 1 to 4 µg/mL

Question: What about the MICs range (K. pneumoniae; K. pneumoniae SHV-2a, n=4) of the same molecule?
Answer: 2 to 4 µg/mL

Question: What about the MICs range (K. pneumoniae; K. pneumoniae SHV-5, n=2) of the same molecule?
Answer: 16 to 32 µg/mL

Question: And the MICs range (K. pneumoniae; K. pneumoniae SHV-12, n=1)?
Answer: 8 µg/mL

Question: And the MICs range (K. pneumoniae; K. pneumoniae SHV-12, n=2)?
Answer: 16 to 32 µg/mL

Question: And the MICs range (K. pneumoniae; K. pneumoniae SHV-28, n=3)?
Answer: >32 µg/mL

Question: And the MICs range (K. pneumoniae; K. pneumoniae TEM-52, n=2)?
Answer: >32 µg/mL

Question: What about the MICs range (K. pneumoniae; K. pneumoniae Wild-type penicillinase, n=2) of the same molecule?
Answer: 0.03 µg/mL

Question: And the MICs range (E. coli; E. coli ACC-1, n=1, first line)?
Answer: >32 µg/mL

Question: What about the MICs range (E. coli; E. coli ACC-1, n=1, second line) of the same molecule?
Answer: >32 µg/mL

Question: And the MICs range (E. coli; E. coli CMY-2, n=1)?
Answer: >32 µg/mL

Question: And the MICs range (E. coli; E. coli CTX-M-1, n=16)?
Answer: 0.5 to 2 µg/mL

Question: And the MICs range (E. coli; E. coli CTX-M-2, n=3)?
Answer: 1.5 to 4 µg/mL

Question: And the MICs range (E. coli; E. coli CTX-M-3, n=1)?
Answer: 4 µg/mL

Question: What about the MICs range (E. coli; E. coli CTX-M-9, n=1) of the same molecule?
Answer: 0.19 µg/mL

Question: What about the MICs range (E. coli; E. coli CTX-M-14, n=15) of the same molecule?
Answer: 0.5 to 4 µg/mL

Question: What about the MICs range (E. coli; E. coli CTX-M-15, n=46) of the same molecule?
Answer: 0.5 to 24 µg/mL

Question: What about the MICs range (E. coli; E. coli CTX-M-27, n=6) of the same molecule?
Answer: 0.5 to 4 µg/mL

Question: And the MICs range (E. coli; E. coli CTX-M-28, n=1)?
Answer: 8 µg/mL

Question: What about the MICs range (E. coli; E. coli CTX-M-32, n=1) of the same molecule?
Answer: 6 µg/mL

Question: And the MICs range (E. coli; E. coli CTX-M-97, n=1)?
Answer: 2 µg/mL

Question: And the MICs range (E. coli; E. coli DHA-1, n=1)?
Answer: 1 µg/mL

Question: And the MICs range (E. coli; E. coli SHV-2a, n=3)?
Answer: 2 to 4 µg/mL

Question: And the MICs range (E. coli; E. coli SHV-3, n=1)?
Answer: >32 µg/mL

Question: And the MICs range (E. coli; E. coli SHV-12, n=1)?
Answer: 8 µg/mL

Question: And the MICs range (E. coli; E. coli TEM-1 penicillinase, n=5)?
Answer: 0.09 to 0.12 µg/mL

Question: And the MICs range (E. coli; E. coli TEM-12, n=1)?
Answer: 8 µg/mL

Question: What about the MICs range (E. coli; E. coli TEM-29, n=2) of the same molecule?
Answer: 4 µg/mL

Question: What about the MICs range (E. coli; E. coli TEM-133, n=1) of the same molecule?
Answer: 12 µg/mL

Question: And the MICs range (E. coli; E. coli VEB-1, n=1)?
Answer: >32 µg/mL

Question: And the MICs range (E. coli; E. coli Wild-type, no resistance, n=5)?
Answer: 0.05 to 0.19 µg/mL

Question: What about the MICs range (K. oxytoca) of the same molecule?
Answer: 0.06 µg/mL

Question: And the MICs range (E. aerogenes; E. aerogenes TEM-121, n=1)?
Answer: >32 µg/mL

Question: What about the MICs range (E. aerogenes; E. aerogenes Wild-type, chromosome-encoded cephalosporinase, n=1) of the same molecule?
Answer: 0.25 µg/mL

Question: What about the MICs range (S. enterica; S. enterica CTX-M-1, n=1) of the same molecule?
Answer: 0.75 µg/mL

Question: What about the MICs range (S. enterica; S. enterica Wild-type, no resistance, n=1) of the same molecule?
Answer: 0.19 µg/mL

Question: With C[C@]1(Cn2ccnn2)[C@H](C(=O)O)N2C(=O)C[C@H]2S1(=O)=O [tazobactam] as the molecule, how does the “color of the wells” value (Enterobacteriaceae) read?
Answer: remained red
